Test results: patent EP3046573B1, “AMYLIN ANALOGUES” (Zealand Pharma A/S, priority 2013, dated 2015)
Where two headings read alike, the source gives them in different places. Numbered stars: 1 amine (or outer) side, 2 acyl side, 3 side chain; on linkers, the order of the positions; unused ones are H or OH. Bridge positions count the residues as written; N and C are the ends. Square brackets hold non-standard residues; d marks the D form. Peptide text beside a SMILES is read from it. * marks the point of attachment. C20 diacid = O=C(O)CCCCCCCCCCCCCCCCCCC(=O)*; γGlu = O=C(O)[C@H](CCC(=O)[*:2])N[*:1]; NMeI = CC[C@H](C)[C@H](NC)C(=O)O; Sar = CNCC(=O)O

Columns and labels:
[1] = target: T1, human calcitonin receptor (hCTR2) (Homo sapiens, UniProt P30988); assay: hCTR2 assay: induction of cAMP (AlphaScreen cAMP Assay kit) in COS7 cells expressing hCTR2; format: cell-based
T1 construct: expressed in transfected cells
T1 sequence (P30988 25-474): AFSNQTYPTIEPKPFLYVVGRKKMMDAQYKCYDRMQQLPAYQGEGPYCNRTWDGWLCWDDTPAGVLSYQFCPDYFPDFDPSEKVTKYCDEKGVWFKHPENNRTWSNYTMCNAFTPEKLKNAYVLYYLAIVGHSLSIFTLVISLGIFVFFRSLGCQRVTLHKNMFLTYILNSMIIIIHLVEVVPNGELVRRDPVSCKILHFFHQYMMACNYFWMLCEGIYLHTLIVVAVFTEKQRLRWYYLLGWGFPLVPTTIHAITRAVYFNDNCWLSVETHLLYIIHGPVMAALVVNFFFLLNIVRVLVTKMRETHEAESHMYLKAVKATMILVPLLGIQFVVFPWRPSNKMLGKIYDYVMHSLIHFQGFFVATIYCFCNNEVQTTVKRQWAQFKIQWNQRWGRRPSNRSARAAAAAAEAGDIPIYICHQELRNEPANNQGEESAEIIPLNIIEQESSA
Summary of the method: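 cAMP read-out by AlphaScreen after cell lysis; EC50 and % efficacy vs pramlintide from 4-parameter logistic fitting. Agonist stimulation: hCTR2-COS7 stable cells, 15 min, 37° C, 100 µM IBMX, 0.1% casein, Tyrode/HEPES pH 7.4.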

[2] = Solubility assessment (turbidity absorbance at 325 nm); format: physicochemical; details: stock 2 mg/ml diluted 1:1, ambient temperature (typically 25°C), n=1; for Solubility, Acetate buffer pH 4: 100 mM acetate buffer pH 4.0; for Solubility, Acetate buffer pH 5: 100 mM acetate buffer pH 5.0; for Solubility, Histidine buffer pH 6: 100 mM histidine buffer pH 6.0; for Solubility, Histidine buffer pH 7: 100 mM histidine buffer pH 7.0; for Solubility, Phosphate buffer pH 6: 100 mM phosphate buffer pH 6.0; for Solubility, Phosphate buffer pH 7: 100 mM phosphate buffer pH 7.0; for Solubility, Phosphate buffer pH 7.5: 100 mM phosphate buffer pH7.5
Summary of the method: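 Turbidimetric screen across pH 4.0–7.5 in 100 mM acetate, histidine and phosphate buffers. A 2 mg/ml peptide stock (pH 2.5) was diluted 1:1 into each, then A325 measured at ambient temperature; values ≤ 0.02 AU denoted solubility of 1 mg/ml or more.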

CC[C@H](C)[C@@H](C(=O)N[C@@H](CC(C)C)C(=O)N[C@@H](CO)C(=O)N[C@@H](CO)C(=O)N[C@H](C(=O)N[C@@H](CC(N)=O)C(=O)N[C@H](C(=O)NCC(=O)N[C@@H](CO)C(=O)N[C@@H](CC(N)=O)C(=O)N[C@H](C(=O)N1CCC[C@H]1C(N)=O)[C@@H](C)O)C(C)C)[C@@H](C)O)N(C)C(=O)CN(C)C(=O)[C@H](Cc1ccccc1)NC(=O)[C@H](CC(N)=O)NC(=O)[C@H](CO)NC(=O)[C@H](CO)NC(=O)[C@H](Cc1c[nH]cn1)NC(=O)[C@H](Cc1c[nH]cn1)NC(=O)[C@H](CC(C)C)NC(=O)[C@H](Cc1ccccc1)NC(=O)[C@H](CCC(=O)O)NC(=O)[C@H](C)NC(=O)[C@H](CC(C)C)NC(=O)[C@H](CCCNC(=N)N)NC(=O)[C@H](CCC(N)=O)NC(=O)[C@@H](NC(=O)[C@H](C)NC(=O)[C@@H]1CSSC[C@H](NC(=O)[C@H](CCCNC(=N)N)NC(=O)CC[C@H](NC(=O)CCCCCCCCCCCCCCCCCCC(=O)O)C(=O)O)C(=O)N[C@@H](CC(N)=O)C(=O)N[C@@H]([C@@H](C)O)C(=O)N[C@@H](C)C(=O)N[C@@H]([C@@H](C)O)C(=O)N1)[C@@H](C)O [Compound 38, [19CD]-isoGlu-RC()NTATC()ATQRLAEFLHHSSNF-Gly(Me)-Ile(Me)-LSSTNVGSNTP-NH2] ({C20 diacid-γGlu}-RCNTATCATQRLAEFLHHSSNF[Sar][NMeI]LSSTNVGSNTP-NH2; disulfide 2-7)
EC50 [1]: 0.16 nM
Solubility, Acetate buffer pH 4 [2]: II (II indicates solubility ≤ 1 mg/ml)
Solubility, Acetate buffer pH 5 [2]: II (II indicates solubility ≤ 1 mg/ml)
Solubility, Histidine buffer pH 6 [2]: II (II indicates solubility ≤ 1 mg/ml)
Solubility, Histidine buffer pH 7 [2]: II (II indicates solubility ≤ 1 mg/ml)
Solubility, Phosphate buffer pH 6 [2]: II (II indicates solubility ≤ 1 mg/ml)
Solubility, Phosphate buffer pH 7 [2]: II (II indicates solubility ≤ 1 mg/ml)
Solubility, Phosphate buffer pH 7.5 [2]: II (II indicates solubility ≤ 1 mg/ml)

CC[C@H](C)[C@@H](C(=O)N[C@@H](CC(C)C)C(=O)N[C@@H](CO)C(=O)N[C@@H](CO)C(=O)N[C@H](C(=O)N[C@@H](CC(N)=O)C(=O)N[C@H](C(=O)NCC(=O)N[C@@H](CO)C(=O)N[C@@H](CC(N)=O)C(=O)N[C@H](C(=O)N1CCC[C@H]1C(N)=O)[C@@H](C)O)C(C)C)[C@@H](C)O)N(C)C(=O)[C@H](C)NC(=O)CN(C)C(=O)[C@H](Cc1ccccc1)NC(=O)[C@H](CC(N)=O)NC(=O)[C@H](CC(N)=O)NC(=O)[C@H](CO)NC(=O)[C@H](CO)NC(=O)[C@H](Cc1c[nH]cn1)NC(=O)[C@H](CC(C)C)NC(=O)[C@H](Cc1ccccc1)NC(=O)[C@H](CCC(=O)O)NC(=O)[C@H](C)NC(=O)[C@H](CC(C)C)NC(=O)[C@H](CCCNC(=N)N)NC(=O)[C@H](CCC(N)=O)NC(=O)[C@@H](NC(=O)[C@H](C)NC(=O)[C@@H]1CSSC[C@H](NC(=O)[C@H](CCCNC(=N)N)NC(=O)CC[C@H](NC(=O)CCCCCCCCCCCCCCCCCCC(=O)O)C(=O)O)C(=O)N[C@@H](CC(N)=O)C(=O)N[C@@H]([C@@H](C)O)C(=O)N[C@@H](C)C(=O)N[C@@H]([C@@H](C)O)C(=O)N1)[C@@H](C)O [Compound 39, [19CD]-isoGlu-RC()NTATC()ATQRLAEFLHSSNNF-Gly(Me)-A-Ile(Me)-LSSTNVGSNTP-NH2] ({C20 diacid-γGlu}-RCNTATCATQRLAEFLHSSNNF[Sar]A[NMeI]LSSTNVGSNTP-NH2; disulfide 2-7)
EC50 [1]: 0.19 nM
Solubility, Acetate buffer pH 4 [2]: SS (SS indicates solubility ≥ 1mg/ml)
Solubility, Acetate buffer pH 5 [2]: SS (SS indicates solubility ≥ 1mg/ml)
Solubility, Histidine buffer pH 6 [2]: SS (SS indicates solubility ≥ 1mg/ml)
Solubility, Histidine buffer pH 7 [2]: SS (SS indicates solubility ≥ 1mg/ml)
Solubility, Phosphate buffer pH 6 [2]: SS (SS indicates solubility ≥ 1mg/ml)
Solubility, Phosphate buffer pH 7 [2]: SS (SS indicates solubility ≥ 1mg/ml)
Solubility, Phosphate buffer pH 7.5 [2]: SS (SS indicates solubility ≥ 1mg/ml)

CC[C@H](C)[C@@H](C(=O)N[C@@H](CC(C)C)C(=O)N[C@@H](CO)C(=O)N[C@@H](CO)C(=O)N[C@H](C(=O)N[C@@H](CC(N)=O)C(=O)N[C@H](C(=O)NCC(=O)N[C@@H](CO)C(=O)N[C@@H](CC(N)=O)C(=O)N[C@H](C(=O)N1CCC[C@H]1C(N)=O)[C@@H](C)O)C(C)C)[C@@H](C)O)N(C)C(=O)CN(C)C(=O)[C@H](Cc1ccccc1)NC(=O)[C@H](CC(N)=O)NC(=O)[C@H](CC(N)=O)NC(=O)[C@H](CO)NC(=O)[C@H](CO)NC(=O)[C@H](Cc1c[nH]cn1)NC(=O)[C@H](CC(C)C)NC(=O)[C@H](Cc1ccccc1)NC(=O)[C@H](CCC(=O)O)NC(=O)[C@H](C)NC(=O)[C@H](CC(C)C)NC(=O)[C@H](CCCNC(=N)N)NC(=O)[C@H](CCC(N)=O)NC(=O)[C@@H](NC(=O)[C@H](C)NC(=O)[C@@H]1CSSC[C@H](NC(=O)[C@H](CCCNC(=N)N)NC(=O)CC[C@H](NC(=O)CCCCCCCCCCCCCCCCCCC(=O)O)C(=O)O)C(=O)N[C@@H](CC(N)=O)C(=O)N[C@@H]([C@@H](C)O)C(=O)N[C@@H](C)C(=O)N[C@@H]([C@@H](C)O)C(=O)N1)[C@@H](C)O [Compound 40, [19CD]-isoGlu-RC()NTATC()ATQRLAEFLHSSNNF-Gly(Me)-Ile(Me)-LSSTNVGSNTP-NH2] ({C20 diacid-γGlu}-RCNTATCATQRLAEFLHSSNNF[Sar][NMeI]LSSTNVGSNTP-NH2; disulfide 2-7)
EC50 ([1]; cAMP induction in COS7 cells expressing hCTR2, average of a minimum of 3 determinations, read-out: hCTR2 EC50): 0.38 nM
Solubility, Acetate buffer pH 4 [2]: SS (SS indicates solubility ≥ 1mg/ml)
Solubility, Acetate buffer pH 5 [2]: SS (SS indicates solubility ≥ 1mg/ml)
Solubility, Histidine buffer pH 6 [2]: SS (SS indicates solubility ≥ 1mg/ml)
Solubility, Histidine buffer pH 7 [2]: SS (SS indicates solubility ≥ 1mg/ml)
Solubility, Phosphate buffer pH 6 [2]: SS (SS indicates solubility ≥ 1mg/ml)
Solubility, Phosphate buffer pH 7 [2]: SS (SS indicates solubility ≥ 1mg/ml)
Solubility, Phosphate buffer pH 7.5 [2]: SS (SS indicates solubility ≥ 1mg/ml)

CC[C@H](C)[C@@H](C(=O)N[C@@H](CC(C)C)C(=O)N[C@@H](CO)C(=O)N[C@@H](CO)C(=O)N[C@H](C(=O)N[C@@H](CC(N)=O)C(=O)N[C@H](C(=O)NCC(=O)N[C@@H](CO)C(=O)N[C@@H](CC(N)=O)C(=O)N[C@H](C(=O)N1CCC[C@H]1C(N)=O)[C@@H](C)O)C(C)C)[C@@H](C)O)N(C)C(=O)[C@H](C)NC(=O)CN(C)C(=O)[C@H](Cc1ccccc1)NC(=O)[C@H](CC(N)=O)NC(=O)[C@H](CC(N)=O)NC(=O)[C@H](CO)NC(=O)[C@H](CO)NC(=O)[C@H](CC(C)C)NC(=O)[C@H](Cc1ccccc1)NC(=O)[C@H](CCC(=O)O)NC(=O)[C@H](C)NC(=O)[C@H](CC(C)C)NC(=O)[C@H](CCCNC(=N)N)NC(=O)[C@H](CCC(N)=O)NC(=O)[C@@H](NC(=O)[C@H](C)NC(=O)[C@@H]1CSSC[C@H](NC(=O)[C@H](CCCNC(=N)N)NC(=O)CC[C@H](NC(=O)CCCCCCCCCCCCCCCCCCC(=O)O)C(=O)O)C(=O)N[C@@H](CC(N)=O)C(=O)N[C@@H]([C@@H](C)O)C(=O)N[C@@H](C)C(=O)N[C@@H]([C@@H](C)O)C(=O)N1)[C@@H](C)O [Compound 41, [19CD]-isoGlu-RC()NTATC()ATQRLAEFLSSNNF-Gly(Me)-A-Ile(Me)-LSSTNVGSNTP-NH2] ({C20 diacid-γGlu}-RCNTATCATQRLAEFLSSNNF[Sar]A[NMeI]LSSTNVGSNTP-NH2; disulfide 2-7)
EC50 [1]: 0.071 nM
Solubility, Acetate buffer pH 4 [2]: SS (SS indicates solubility ≥ 1mg/ml)
Solubility, Acetate buffer pH 5 [2]: SS (SS indicates solubility ≥ 1mg/ml)
Solubility, Histidine buffer pH 6 [2]: SS (SS indicates solubility ≥ 1mg/ml)
Solubility, Histidine buffer pH 7 [2]: SS (SS indicates solubility ≥ 1mg/ml)
Solubility, Phosphate buffer pH 6 [2]: SS (SS indicates solubility ≥ 1mg/ml)
Solubility, Phosphate buffer pH 7 [2]: SS (SS indicates solubility ≥ 1mg/ml)
Solubility, Phosphate buffer pH 7.5 [2]: SS (SS indicates solubility ≥ 1mg/ml)
